Assay results as given in patent US11679110B2, “Methods of treating disorders using CSF1R inhibitors” (Deciphera Pharmaceuticals, LLC, priority 2018, dated 2023).

Assays:
[1] = Dose escalation 3+3 design, DLT / maximum tolerated dose in patients; type: in vivo, human; conditions: through Cohort 7
Text: A minimum of 3 patients is enrolled in each dose level cohort. If a patient experiences a DLT during Cycle 1, then the cohort will be expanded to 6 patients. If ≥2 patients out of 3 to 6 patients experience one or more dose-limiting toxicities (DLT(s)) during Cycle 1, dose escalation will end, and a lower dose level cohort will be expanded for determination of the maximum tolerated dose (MTD). If no additional patients experience a DLT in the expanded cohort, the dose level will be escalated. Decisions of dose escalation and the dose level of the next cohort will be determined. A patient will be evaluable in the dose escalation phase if the patient either experienced a DLT during Cycle 1 or received ≥80% of planned doses of study drug in Cycle 1. After Dose Escalation Cohort 6, a review of safety, PK and PD data will determine future escalation cohorts. No more than 50% increases in a total dose given in the first cycle will be allowed from the previous cohort.
The MTD will be defined as the highest dose level at which no more than 1 of 6 DLT-evaluable patients experiences a DLT(s) in Cycle 1 during dose escalation. An additional, lower, intermediate dose level may be explored to determine a recommended phase 2 dose (RP2D). The RP2D will be the MTD or a biologically active or maximally feasible dose lower than the MTD. Different RP2Ds may be determined for solid tumor and DTGCT patients. […]

[2] = in vivo; conditions: Sprague-Dawley, rat

## Cc1nc(-c2cnc(NC(C)C)n(C)c2=O)ccc1Oc1ccnc(-c2cnn(C)c2)c1 [Compound 1, 2-(isopropylamino)-3-methyl-5-(6-methyl-5-((2-(1-methyl-1H-pyrazol-4-yl)pyridin-4-yl)oxy)pyridin-2-yl)pyrimidin-4(3H)-one]
[1]
  MTD: has not been reached
[2]
  NOAEL at 4 weeks: 5 mg/kg/day
